# According to patent US6583127B1, “Use of etherlysophospholipids as antiinflammatory agents” (Inkeysa. SA, priority 1998, dated 2003):
# Tests used:
# L-selectin (CD62L) [1] = assay: Cell surface expression of L-selectin in human neutrophils (immunofluorescence flow cytometry); assay type: cell-based
# Excerpt: (§1) Isolation and treatment of neutrophils.
# (§2) Monoclonal antibodies. […] The antibodies are commercially available.
# (§3) Immunofluorescence flow cytometry. […] Results were expressed as relative MFI (rMFI), such that
# (§4) rMFI=(MFIagent×100)/MFImedium
# (§5) Background fluorescence was substracted from all values.
# L-selectin (CD62L) [2] = settings: literature value, González-Alvaro et al., J. Rheumatol., 23, 723 (1996); cited from earlier work
# [3] = system: bentonite-induced skin edema in mice; assay: Bentonite-induced skin edema in mice; assay type: in vivo; settings: for Area (area below the curve of difference between right and left pad diameter) / Inhibition of the inflammatory process: mice; for Inhibition of the inflammatory process: versus inflamed control
# Excerpt: Mice were individually identified with an ear code and were kept in groups of 6 per cage (Makrolon: 47.6×22.7×14.5 cm). Each cage was individually labelled with the n^o. of the study, type of treatment, doses used and route of administration, as well as the name of the director of the study, number and gender of contained animals, date of arrival and of the beginning of the experiment.
# The animals had free access to mouse standard chow (UAR A04C; Usine d'Alimentation Rationelle, 91360-Villemoisson sur Orge, Francia; lot nos. 70520 and 70722). Drinking water access was ad libitum. The water, supplied by the Compañia de Aguas de Sabadell, S.A., is routinely analysed for the presence of possible contaminants. The temperature in the animal rooms was 22±3° C., with sporadic peaks of 26° C.; air humidity was 60±10%, with sporadic peaks of 80%. Daily light (between 7:00 h and 19:00 h) and dark phases were installed automatically.
# Upon arrival, all animals were allowed to rest in the facilities for 8 days before use in the experiment. Table 2 indicates the six random groups of 10 mice each were set for experimentation.
# The diameter of both hind pads of all mice was measured at day 0 and set as the basal value. Edema was then induced by injecting s.c. 13.3 mg/ml bentonite in 0.03 ml PBS into the right food pad. The corresponding mice were given daily the different compounds orally for 21 days. The inflamed control group was given 0.2 ml PBS only. The diameter of hind pads, as well as the body weight, was then measured every other day.
# In each experimental group the average value, the standard deviation (SD) and the standard error was determined for the two parameters studied (hind pad diameter and body weight). The factor variance analysis (FVA) was used to compare the values obtained in the different groups. Where statistically significant differences were observed, the Duncan-Kramer test for a p<0.05 was applied.
# The area below the curves corresponding to the diameters of the right and left pads was calculated and the evolution of the difference between them were plotted (FIGS. 7 and 8). The anti-inflammatory capacity of the different substances was evaluated as the extent of inhibition of the inflammatory process that was calculated with the formula [formula]
# where C is the area below the inflammed control group and T the area below the different treatment groups.
# [4] = system: PGE2 production in murine fibroblasts 3T3; assay: PGE2 measurement in 3T3 cells (enzyme immunoassay); assay type: cell-based, Mouse; settings: for pg PGE2 (intracellular): 3T3 cells, 20 min at 37° C., Control 112 ± 21; for effect on PGE2 production (in words): 3T3 fibroblasts, ionomycin-induced PGE2
# Experimental: Cell culture. Human promyelocytic HL-60 cells and promonocytic U937 cells were grown in RPMI-1640 culture medium supplemented with 10% (v/v) heat-inactivated fetal calf serum, 2 mM L-glutamine, 100 units/ml penicillin and 24 μg/ml gentamicin. Mouse 3T3 fibroblasts were grown in Dulbecco's modified Eagle's medium (DMEM) supplemented with 10% (v/v) heat-inactivated fetal calf serum, 2 mM L-glutamine, 100 units/ml penicillin and 24 μg/ml gentamicin. Cells were incubated at 37° C. in a humidified atmosphere at 5% CO2 and 95% air.
# Prostaglandin E2 (PGE2) measurement. 3T3 cells (1.5×10^5 in 100 μl in complete DMEM culture medium) were incubated overnight at 37° C. (5% CO2) in 96-well microtitre plates (tissue-culture grade). Then, the distinct agents were added in 100 μl complete DMEM culture medium for 20 min at 37° C. After washing thoroughly the cells with PBS, cells were lysed and intracellular PGE2 was measured using an enzyme immunoassay kit (Amersham Pharmacia Biotech, Buckinghamshire, UK) following the manufacturer's instructions. Data obtained in duplicate measurements were converted into actual amounts of PGE2 using a calibration curve run in parallel with defined amounts of PGE2.
# [5] = system: PGE2 synthesis in human mucosal gastric biopsies; assay: Ex vivo PGE2 synthesis in human mucosal gastric biopsies; settings: for pg PGE2/mg (weight): human mucosal gastric biopsies, agents 10 μM, 20 min at 37° C., Control 115 ± 26, mean ± S.D., three experiments
# Experimental: The ability of the gastric mucosa to generate prostaglandins estimates total cyclooxygenase (COX) activity (COX-1 plus any COX-2). To measure ex vivo prostaglandin E2 (PGE2) synthesis, normal gastric mucosal biopsies were immediately placed in Ependorff tubes containing phosphate-buffered saline (PBS). […] Each mucosal gastric biopsy was cut into different pieces (about 1 mg weight) that were subsequently weighed and incubated in the absence or in the presence of the distinct agents indicated in the corresponding Table for 20 min at 37° C. in 200 μl Hepes-glucose buffer. Then cells were mucosal gastric samples were pelleted by centrifugation, lysed and intracellular PGE2 was measured using an enzyme immunoassay kit (Amersham Pharmacia Biotech, Buckinghamshire, UK) following the manufacturer's instructions. Prostaglandin synthesis is expressed as picograms of PGE2 synthesised per mg of tissue incubation. Each experiment corresponded to the use of one biopsy, in order to avoid variability among different biopsies. Normal volunteers without a previous pharmacological treatment were selected for these assays. The normal gastroduodenal mucosa was visually assessed by endoscopy.
# Human mucosal gastric biopsies were cut into about 1 mg pieces, incubated with the indicted agents (10 μM) for 20 min at 37° C. in Hepes-glucose buffer, and then the intracellular content of PGE2 was determined as described in the Methods section. Untreated control samples were run in parallel. Data are shown as mean Values+S.D. from three independent experiments.
# CD11b = assay: Cell surface expression of CD11b in human neutrophils (immunofluorescence flow cytometry); assay type: cell-based; settings: 10 ng/ml, rMFI=(MFIagent×100)/MFImedium, Medium = 100
# Excerpt: as §1, §2, §3, §4, §5
# CD43 = assay: Cell surface expression of CD43 in human neutrophils (immunofluorescence flow cytometry); assay type: cell-based; settings: 10 ng/ml, Medium = 100
# Excerpt: as §1, §2, §3, §4, §5
# CD44 = assay: Cell surface expression of CD44 in human neutrophils (immunofluorescence flow cytometry); assay type: cell-based; settings: 10 ng/ml, Medium = 100
# Excerpt: as §1, §2, §3, §4, §5
# HLA = settings: human neutrophils, 10 ng/ml; Medium = 100
# Experimental: Isolation and treatment of neutrophils. Human neutrophils were obtained from fresh peripheral blood by dextran sedimentation and centrifugation on Ficoll-Hypaque followed by hypotonic lysis of residual erythrocytes. […] Cells were resuspended at 3×10^6 neutrophils/ml in HEPES/glucose buffer (150 mM NaCl, 5 mM KCl, 10 mM HEPES, 1.2 mM MgCl2, 1.3 mM CaCl2, 5.5 mM glucose, pH 7.5), and incubated in the absence or presence of distinct agents at 37° C. for the times indicated in the respective legends to figures. Subsequently, cells were pelleted by centrifugation and saved to determine the content of different cell surface antigens by flow cytometry.
# Monoclonal antibodies. The following monoclonal antibodies were used: TS1/11 anti-CD11a, Bear-1 anti-CD11b, TP1/36.1 anti-CD43, HP2/9 anti-CD44, Leu-8 anti-L-selectin, and W6/32, specific for a monomorphic determinant on HLA-A, B molecules. P3X63 myeloma culture supernatant was used as a negative control. The antibodies are commercially available.
# Immunofluorescence flow cytometry. Immunofluorescence flow cytometry analysis was performed in a FACStar-Plus and a FACScan flow cytometers (Becton-Dickinson). Neutrophils were incubated at 4° C. with the corresponding monoclonal antibody followed by washing and labelling with a fluorescein isothiocyanate (FITC)-labelled-goat anti-mouse IgG antibody (DAKO, Glostrup, Denmark). Mean fluorescence intensity (MFI) in linear scale was obtained from at least 7000 cells in each sample, and the fluorescence produced by the myeloma P3X63 supernatant was considered as background. Results were expressed as relative MFI (rMFI), such that
# as §4, §5
# CD11a = assay: Cell surface expression of CD11a in human neutrophils (immunofluorescence flow cytometry); assay type: cell-based; settings: 10 ng/ml, Medium = 100
# Excerpt: as §1, §2, §3, §4, §5
# [6] = system: experimental colitis induced by TNB (2,4,6-trinitrobenzenesulphonic acid); assay: Rat model of experimental colitis induced by TNB, macroscopic evaluation; assay type: in vivo; design: Wet Weight (colon): unit not given beside the values; settings: Wistar rat, 2.5 mg/Kg p.o.; for Wet Weight (colon) / Sample 2 × 6 mm / Score (0-10) / Weight/mm: Mean ± SEM
# Experimental: The therapeutic potential for the treatment of ulcerative colitis of IEC01 at 2.5 and 5 mg/kg and IES01 at 2.5 mg/kg, was evaluated after their administration by oral route during 14 days (7 days of preventive treatment and 7 days of therapeutic treatment) using the rat model of experimental colitis induced by TNB (2,4,6-trinitrobenzenesulphonic acid). As reference parameters, the body weight, wet colon weight and score macroscopic evaluation were evaluated after 24 hours and after 7 days of the intraluminal administration of TNB in the colon. […] The inflammatory response is recognised by the presence of ulcerative fissures, faecal shatters and inflammation of bowel wall. A chronic inflammatory response was observed 7 days after the administration. An erratic response with lineal or punctual ulcers, necrosis, faecal shatters, reduction of colonic lumen, granulomas and peritoneal adherence was observed.
# [7] = Body weight evaluation in the TNB colitis rat model; assay type: in vivo; settings: Wistar rat, 2.5 mg/Kg p.o.; Mean ± SEM
# Experimental: The therapeutic potential for the treatment of ulcerative colitis of IEC01 at 2.5 and 5 mg/kg and IES01 at 2.5 mg/kg, was evaluated after their administration by oral route during 14 days (7 days of preventive treatment and 7 days of therapeutic treatment) using the rat model of experimental colitis induced by TNB (2,4,6-trinitrobenzenesulphonic acid). As reference parameters, the body weight, wet colon weight and score macroscopic evaluation were evaluated after 24 hours and after 7 days of the intraluminal administration of TNB in the colon.
# [8] = 2 mg/kg orally daily for 21 days
# [9] = 2.5 mg/kg orally daily for 21 days
# [10] = 5 mg/kg orally daily for 21 days
# [11] = after 24 hours of intraluminal administration
# [12] = after 7 days of intraluminal administration
structure (smiles),measurement,setting,value
"O=C(O)COC(=O)Cc1ccccc1Nc1c(Cl)cccc1Cl [aceclofenac, reference compound]",IC50,"L-selectin (CD62L) [1]; converted from μg/ml values, read-out: IC50 for L-selectin down-regulation, corrected for molecular weight",14.1 µM
same,IC50 for L-selectin down-regulation,L-selectin (CD62L) [2],5 µg/mL
"COc1ccc2c(c1)c(CC(=O)O)c(C)n2C(=O)c1ccc(Cl)cc1 [Indomethacin, reference compound]",Area (area below the curve of difference between right and left pad diameter),[3]; [8],6.6 ± 0.92 A.U.
same,Inhibition of the inflammatory process,[3]; [8],15.3%
same,pg PGE2 (intracellular),[4]; 50 μM,4 ± 2 pg
same,effect on PGE2 production (in words),[4],almost completely inhibited
same,pg PGE2/mg (weight),[5],7 ± 2 pg PGE2/mg
same,effect on mucosal PGE2 synthesis (in words),"[5]; normal mucosal gastric biopsies, ex vivo",completely blocked
"C[C@H](CCC(=O)O)C[C@H](C)C[C@H](C)C(=O)/C=C(\O)[C@H](C)C[C@H](C)C/C=C/[C@@H](C)[C@@H](O)[C@@H](C)[C@@H](O)C[C@@H]1CC[C@@](C)([C@H]2CC[C@@](C)([C@@H](C)O)O2)O1 [Ionomycin, reference compound]",pg PGE2 (intracellular),[4]; 50 μM,486 ± 38 pg
same,pg PGE2/mg (weight),[5],308 ± 31 pg PGE2/mg
"CCCCCCCCCCCCCC(=O)O[C@@H]1[C@@H](C)[C@@]2(O)[C@@H](C=C(CO)C[C@]3(O)C(=O)C(C)=C[C@@H]23)[C@@H]2C(C)(C)[C@]12OC(C)=O [PMA, reference compound]",CD11b cell surface expression (rMFI),CD11b,272 ± 22
same,CD43 cell surface expression (rMFI),CD43,33.5 ± 9
same,CD44 cell surface expression (rMFI),CD44,49.5 ± 11
same,L-Selectin cell surface expression (rMFI),"L-selectin (CD62L) [1]; human neutrophils, 10 ng/ml, Medium = 100",38 ± 7
same,HLA cell surface expression (rMFI),HLA,96 ± 7
same,CD11a cell surface expression (rMFI),CD11a,95 ± 8
CCCCCCCCCCCCCCCCOCC(COP(=O)(O)OCC(N)C(=O)O)OC (stereo not drawn) [IES01],"times more efficient in inhibiting inflammation than indomethacin, at the molecular level","[3]; 2.5 mg/kg versus indomethacin 2 mg/kg, taking molecular weights into account",3.8 times
same,Area (area below the curve of difference between right and left pad diameter),[3]; [9],4.4 ± 0.63 A.U.
same,Inhibition of the inflammatory process,[3]; [9],43.8%
same,Area (area below the curve of difference between right and left pad diameter),[3]; [10],5.6 ± 0.70 A.U.
same,Inhibition of the inflammatory process,[3]; [10],28.3%
same,pg PGE2 (intracellular),[4]; 10 μM,192 ± 25 pg
same,effect on PGE2 production (in words),[4],no significant inhibition
same,"% (inhibition, Sample 2 × 6 mm)",[6]; [11],80.2%
same,"% (inhibition, Score)",[6]; [11],65.7%
same,"% (inhibition, Weight/mm)",[6]; [11],75.2%
same,"% (inhibition, Wet Weight)",[6]; [11],75.3%
same,Wet Weight (colon),[6]; after 24 hours of intraluminal administration in the colon,1.425 ± 0.20
same,Sample 2 × 6 mm,[6]; [11],272.70 ± 44.43 mg
same,Score (0-10),[6]; [11],3.2 ± 0.86
same,Weight/mm,[6]; [11],0.158 ± 0.02
same,"% (inhibition, Sample 2 × 6 mm)",[6]; [12],31.7%
same,"% (inhibition, Weight/mm)",[6]; [12],11.1%
same,"% (inhibition, Wet Weight)",[6]; [12],11.1%
same,Wet Weight (colon),[6]; after 7 days of intraluminal administration in the colon,1.365 ± 0.24
same,"% (inhibition, Score)","[6]; after 7 days of intraluminal administration, 2.5 mg/kg",50%
same,Sample 2 × 6 mm,[6]; [12],185.04 ± 23.18 mg
same,Score (0-10),[6]; [12],2.0 ± 0.84
same,Weight/mm,[6]; [12],0.151 ± 0.03
same,Body weight DAY 1,[7],232.3 ± 2.68 g
same,Body weight DAY 2,[7],234.5 ± 2.94 g
same,Body weight DAY 4,[7],241.9 ± 2.40 g
same,Body weight DAY 7,[7],211.4 ± 2.48 g
same,Body weight DAY 8,[7],218.8 ± 3.57 g
same,Body weight DAY 11,[7],244.4 ± 4.95 g
same,Body weight DAY 12,[7],250.0 ± 4.72 g
same,Body weight DAY 13,[7],249.8 ± 6.84 g
same,Body weight DAY 14,[7],254.0 ± 8.44 g
